pIC50: −log10 of the molar value.
Key:
[1] = tested on: phospho-FMS in THP-1 cells; experiment: cells; settings: Homo sapiens, THP-1, read-out: pFMS inhibition in THP-1 cells
osteoclast precursors = experiment: cells; type: cell-based; settings: read-out: Osteoclast assay
Method: Osteoclast Tartrate-Resistant Acid Phosphatase Assay
Diluted compound was transferred to a 384-well black clear bottom plate. Two-thousand five hundred osteoclast precursors (Lonza, Walkersville, Md.) were added per well in growth media containing Receptor Activator of Nuclear Factor Kappa-beta ligand (RANKL) and M-CSF (R&D Systems, Minneapolis, Minn.). […] Tartrate-resistant acid phosphatase activity in the supernatant samples was determined using an acid phosphatase assay kit (Sigma, St. Louis, Mo.). Absorbance was measured at 550 nm using a plate reader. Data was analyzed using Prism software (Graphpad, San Diego, Calif.) to calculate IC50 values.

[2] = target: unphosphorylated c-KIT kinase (uKIT, Seq. ID no. 2) (Homo sapiens, UniProt P10721); experiment: biochemical; settings: uKIT, enzymatic assay, ATP 2000 μM
Method: uKit kinase (Seq. ID No. 2) Assay
In this assay, the oxidation of NADH (thus the decrease at A340 nm) was continuously monitored spectrophometrically. […] The inhibition reaction was started by mixing serial diluted test compound with the above reaction mixture. The absorption at 340 nm was monitored continuously for 4 hours at 30° C. on Synergy 2 plate reader (BioTech).

[3] = target: unphosphorylated PDGFRβ kinase (uPDGFRβ, Seq. ID No. 3) (Homo sapiens, UniProt P09619); experiment: biochemical; settings: uPDGFRb, enzymatic assay, ATP 500 μM
Method: Unphosphorylated PDGFRβ (uPDGFRβ) Kinase (Seq. ID No. 3) Assay
In this assay, the oxidation of NADH (thus the decrease at A340 nm) was continuously monitored spectrophometrically. […] The inhibition reaction was started by mixing serial diluted test compound with the above reaction mixture. The absorption at 340 nm was monitored continuously for 4 h at 30° C. on a Polarstar Optima or Synergy 2 plate reader. The reaction rate was calculated using the 1.5 to 2.5 h time frame. Percent inhibition was obtained by comparison of reaction rate with that of a control (i.e. with no test compound). IC50 values were calculated from a series of percent inhibition values determined at a range of inhibitor concentrations using software routines as implemented in the GraphPad Prism software package.

M-NFS-60 cells = experiment: cells; settings: 67 h, read-out: M-NFS-60 cell proliferation
Method: M-NFS-6 Cell Proliferation Assay
A serial dilution of test compound was dispensed into a 384-well black clear bottom plate (Corning, Corning, N.Y.). Two thousand five hundred cells were added per well in 50 μL complete growth medium. […] IC50 values were calculated from a series of percent inhibition values determined at a range of inhibitor concentrations using software routines as implemented in the GraphPad Prism software package.

[4] = target: T1, unphosphorylated c-FMS kinase (uFMS, Seq. ID no. 1) (Homo sapiens, UniProt P07333); experiment: biochemical; settings: uFMS, enzymatic assay, ATP 500 μM
T1 sequence (P07333 538-972): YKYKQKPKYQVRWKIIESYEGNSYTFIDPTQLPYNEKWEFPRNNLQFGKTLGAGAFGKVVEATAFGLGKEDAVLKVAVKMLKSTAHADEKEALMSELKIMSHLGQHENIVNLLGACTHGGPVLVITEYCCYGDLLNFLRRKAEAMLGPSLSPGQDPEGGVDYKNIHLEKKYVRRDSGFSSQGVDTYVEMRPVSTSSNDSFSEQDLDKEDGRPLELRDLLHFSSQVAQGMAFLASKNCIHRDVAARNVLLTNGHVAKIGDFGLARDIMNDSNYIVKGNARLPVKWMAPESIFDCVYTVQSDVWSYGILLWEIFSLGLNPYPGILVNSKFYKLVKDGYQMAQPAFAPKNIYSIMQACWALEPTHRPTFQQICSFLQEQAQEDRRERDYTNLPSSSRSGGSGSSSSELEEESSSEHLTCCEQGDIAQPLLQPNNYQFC
Method: In this assay, the oxidation of NADH (thus the decrease at A340 nm) was continuously monitored spectrophometrically. The reaction mixture (100 μL) contained FMS (purchased from Millipore) (10 nM), polyE4Y (1 mg/mL), MgCl2 (10 mM), pyruvate kinase (4 units), lactate dehydrogenase (0.7 units), phosphoenol pyruvate (1 mM), NADH (0.28 mM) and ATP (500 μM) in 90 mM Tris buffer containing 0.2% octyl-glucoside and 1% DMSO, pH 7.5. The inhibition reaction was started by mixing serial diluted test compound with the above reaction mixture. The absorption at 340 nm was monitored continuously for 4 hours at 30° C. on Synergy 2 plate reader. The reaction rate was calculated using the 3 to 4 h time frame. Percent inhibition was obtained by comparison of reaction rate with that of a control (i.e. in the absence of test compound). IC50 values were calculated from a series of percent inhibition values determined at a range of inhibitor concentrations using software routines as implemented in the GraphPad Prism software package.

Sequence of unphosphorylated c-KIT kinase (uKIT, Seq. ID no. 2) (P10721 with tags, fused parts or gaps): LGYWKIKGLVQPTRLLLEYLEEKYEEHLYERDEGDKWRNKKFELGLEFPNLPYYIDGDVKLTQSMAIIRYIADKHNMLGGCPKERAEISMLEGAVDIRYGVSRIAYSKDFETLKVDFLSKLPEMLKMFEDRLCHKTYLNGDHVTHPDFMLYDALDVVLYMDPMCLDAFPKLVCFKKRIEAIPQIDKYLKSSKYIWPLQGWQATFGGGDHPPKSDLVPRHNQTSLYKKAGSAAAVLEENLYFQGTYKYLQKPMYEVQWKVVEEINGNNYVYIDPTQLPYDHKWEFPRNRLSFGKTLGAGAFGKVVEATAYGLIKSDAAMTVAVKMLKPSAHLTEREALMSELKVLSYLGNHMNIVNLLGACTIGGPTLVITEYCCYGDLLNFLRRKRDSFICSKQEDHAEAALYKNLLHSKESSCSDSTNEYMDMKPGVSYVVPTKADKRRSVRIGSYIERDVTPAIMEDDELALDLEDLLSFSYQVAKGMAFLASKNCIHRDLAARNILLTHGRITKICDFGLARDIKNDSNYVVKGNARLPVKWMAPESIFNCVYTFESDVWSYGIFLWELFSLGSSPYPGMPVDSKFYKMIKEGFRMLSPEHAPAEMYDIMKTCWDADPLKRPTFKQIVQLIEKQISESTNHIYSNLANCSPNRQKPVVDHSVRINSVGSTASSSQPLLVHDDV
Sequence of unphosphorylated PDGFRβ kinase (uPDGFRβ, Seq. ID No. 3) (P09619 557-1106): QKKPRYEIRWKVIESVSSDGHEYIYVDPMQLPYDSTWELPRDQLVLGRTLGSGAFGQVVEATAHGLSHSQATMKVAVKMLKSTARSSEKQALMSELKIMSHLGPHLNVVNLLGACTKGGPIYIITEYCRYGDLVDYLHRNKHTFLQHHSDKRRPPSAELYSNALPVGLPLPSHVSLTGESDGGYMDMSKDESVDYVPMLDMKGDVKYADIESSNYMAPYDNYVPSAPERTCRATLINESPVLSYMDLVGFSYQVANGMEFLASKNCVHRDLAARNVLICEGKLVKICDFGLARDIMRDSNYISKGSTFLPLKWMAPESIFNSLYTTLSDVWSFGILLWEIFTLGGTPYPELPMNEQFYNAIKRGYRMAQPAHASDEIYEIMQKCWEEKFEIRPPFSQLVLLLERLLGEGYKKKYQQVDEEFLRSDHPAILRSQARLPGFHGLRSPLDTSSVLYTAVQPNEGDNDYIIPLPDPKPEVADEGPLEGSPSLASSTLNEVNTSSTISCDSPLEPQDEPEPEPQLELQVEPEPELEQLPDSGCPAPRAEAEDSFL

SMILES	pIC50 [1]	pIC50 (osteoclast precursors)	pIC50 [2]	pIC50 [3]	pIC50 (M-NFS-60 cells)	pIC50 [4]
Cc1ccc(-c2cc(Oc3ccc(NC(=O)NC(=O)C(C)(C)C)nc3C)ccn2)cn1 [Example 39, N-((6-methyl-5-((6′-methyl-[2,3′-bipyridin]-4-yl)oxy)pyridin-2-yl)carbamoyl)pivalamide]	7.00 to 8.00	7.00 to 8.00	–	–	–	–
COC(C)(C)C(=O)NC(=O)Nc1ccc(Oc2ccnc(-c3cnn(C)c3)c2)cn1 [Example 55, 2-methoxy-2-methyl-N-((5-((2-(1-methyl-1H-pyrazol-4-yl)pyridin-4-yl)oxy)pyridin-2-yl)carbamoyl)propanamide]	7.00 to 8.00	> 8.00	–	–	–	–
Cc1nc(NC(=O)NC(=O)CC(C)(C)C(F)(F)F)ccc1Oc1ccnc(-c2cnn(C)c2)c1 [Example 47, 4,4,4-trifluoro-3,3-dimethyl-N-((6-methyl-5-((2-(1-methyl-1H-pyrazol-4-yl)pyridin-4-yl)oxy)pyridin-2-yl)carbamoyl)butanamide]	7.00 to 8.00	7.00 to 8.00	–	–	–	–
COC1(C(=O)NC(=O)Nc2ccc(Oc3ccnc(-c4ccnc(C)c4)c3)cn2)CCCC1 [Example 168, 1-methoxy-N-((5-((2′-methyl-[2,4′-bipyridin]-4-yl)oxy)pyridin-2-yl)carbamoyl)cyclopentanecarboxamide]	–	7.00 to 8.00	6.00 to 7.00	6.00 to 7.00	7.00 to 8.00	> 8.00
Cn1cc(-c2cc(Oc3ccc(NC(=O)NC(=O)C4(C)CCC4)nc3)ccn2)cn1 [Example 87, 1-methyl-N-((5-((2-(1-methyl-1H-pyrazol-4-yl)pyridin-4-yl)oxy)pyridin-2-yl)carbamoyl)cyclobutanecarboxamide]	–	> 8.00	6.00 to 7.00	6.00 to 7.00	> 8.00	> 8.00
CCc1nc(NC(=O)NC(=O)C2(OC)CC2)ccc1Oc1ccnc(-c2cnn(C)c2)c1 [Example 141, N-((6-ethyl-5-((2-(1-methyl-1H-pyrazol-4-yl)pyridin-4-yl)oxy)pyridin-2-yl)carbamoyl)-1-methoxycyclopropanecarboxamide]	–	7.00 to 8.00	< 6.00	< 6.00	6.00 to 7.00	7.00 to 8.00
COC1(C(=O)NC(=O)Nc2ccc(Oc3ccnc(-c4cnc(C)s4)c3)cn2)CC1 [Example 155, 1-methoxy-N-((5-((2-(2-methylthiazol-5-yl)pyridin-4-yl)oxy)pyridin-2-yl)carbamoyl)cyclopropanecarboxamide]	–	7.00 to 8.00	6.00 to 7.00	< 6.00	7.00 to 8.00	> 8.00
Cc1cn(-c2cc(Oc3ccc(NC(=O)NC(=O)[C@@H]4C[C@H]5CC[C@@H]4O5)nc3C)ccn2)cn1 (relative stereo) [Example 137, exo-N-((6-methyl-5-((2-(4-methyl-1H-imidazol-1-yl)pyridin-4-yl)oxy)pyridin-2-yl)carbamoyl)-7-oxabicyclo[2.2.1]heptane-2-carboxamide]	–	7.00 to 8.00	< 6.00	< 6.00	6.00 to 7.00	7.00 to 8.00
Cc1cn(-c2cc(Oc3ccc(NC(=O)NC(=O)C4(C)CCOCC4)nc3)ccn2)cn1 [Example 157, 4-methyl-N-((5-((2-(4-methyl-1H-imidazol-1-yl)pyridin-4-yl)oxy)pyridin-2-yl)carbamoyl)tetrahydro-2H-pyran-4-carboxamide]	–	7.00 to 8.00	6.00 to 7.00	6.00 to 7.00	6.00 to 7.00	7.00 to 8.00
CNc1ccc(-c2cc(Oc3ccc(NC(=O)NC(=O)C(C)(C)C)nc3)ccn2)cn1 [Example 105, N-((5-((6′-(methylamino)-[2,3′-bipyridin]-4-yl)oxy)pyridin-2-yl)carbamoyl)pivalamide]	–	> 8.00	6.00 to 7.00	6.00 to 7.00	7.00 to 8.00	> 8.00
Cn1cc(-c2cc(Oc3ccc(NC(=O)NC(=O)CC4CC5CCC4C5)nc3)ccn2)cn1 (centres unmarked) [Example 62, 2-(bicyclo[2.2.1]heptan-2-yl)-N-((5-((2-(1-methyl-1H-pyrazol-4-yl)pyridin-4-yl)oxy)pyridin-2-yl)carbamoyl)acetamide]	–	> 8.00	> 8.00	> 8.00	> 8.00	> 8.00
CCC(=O)NC(=O)Nc1ccc(Oc2ccnc(-c3cn(C)cn3)c2)cn1 [Example 138, N-((5-((2-(1-methyl-1H-imidazol-4-yl)pyridin-4-yl)oxy)pyridin-2-yl)carbamoyl)propionamide]	–	7.00 to 8.00	< 6.00	< 6.00	6.00 to 7.00	6.00 to 7.00
Cn1cc(-c2cc(Oc3ccc(NC(=O)NC(=O)C4CC5CCC4CC5)nc3)ccn2)cn1 (centres unmarked) [Example 74, N-((5-((2-(1-methyl-1H-pyrazol-4-yl)pyridin-4-yl)oxy)pyridin-2-yl)carbamoyl)bicyclo[2.2.2]octane-2-carboxamide]	–	7.00 to 8.00	> 8.00	7.00 to 8.00	> 8.00	> 8.00
Cn1cc(-c2cc(Oc3ccc(NC(=O)NC(=O)C4CCOCC4)nc3)ccn2)cn1 [Example 68, N-((5-((2-(1-methyl-1H-pyrazol-4-yl)pyridin-4-yl)oxy)pyridin-2-yl)carbamoyl)tetrahydro-2H-pyran-4-carboxamide]	–	> 8.00	6.00 to 7.00	6.00 to 7.00	7.00 to 8.00	> 8.00
Cc1cc(NC(=O)NC(=O)C(C)(C)C)nc(C)c1Oc1ccnc(-c2cnn(C)c2)c1 [Example 116, N-((4,6-dimethyl-5-((2-(1-methyl-1H-pyrazol-4-yl)pyridin-4-yl)oxy)pyridin-2-yl)carbamoyl)pivalamide]	–	7.00 to 8.00	7.00 to 8.00	7.00 to 8.00	7.00 to 8.00	> 8.00
COC1(C(=O)NC(=O)Nc2ccc(Oc3ccnc(-c4cnc(C)s4)c3)cn2)CCCC1 [Example 149, 1-methoxy-N-((5-((2-(2-methylthiazol-5-yl)pyridin-4-yl)oxy)pyridin-2-yl)carbamoyl)cyclopentanecarboxamide]	–	7.00 to 8.00	6.00 to 7.00	6.00 to 7.00	7.00 to 8.00	> 8.00
Cc1nc(NC(=O)NC(=O)C23CC4CC(CC(C4)C2)C3)ccc1Oc1ccnc(-c2cnn(C)c2)c1 [Example 37, N-((6-methyl-5-((2-(1-methyl-1H-pyrazol-4-yl)pyridin-4-yl)oxy)pyridin-2-yl)carbamoyl)adamantane-1-carboxamide]	–	6.00 to 7.00	7.00 to 8.00	7.00 to 8.00	7.00 to 8.00	> 8.00
Cc1cc(NC(=O)NC(=O)C2CCOCC2)nc(C)c1Oc1ccnc(-c2cnn(C)c2)c1 [Example 117, N-((4,6-dimethyl-5-((2-(1-methyl-1H-pyrazol-4-yl)pyridin-4-yl)oxy)pyridin-2-yl)carbamoyl)tetrahydro-2H-pyran-4-carboxamide]	–	7.00 to 8.00	7.00 to 8.00	6.00 to 7.00	7.00 to 8.00	> 8.00
Cc1cn(-c2cc(Oc3ccc(NC(=O)NC(=O)C4CCOC4)nc3C)ccn2)cn1 (centres unmarked) [Example 136, N-((6-methyl-5-((2-(4-methyl-1H-imidazol-1-yl)pyridin-4-yl)oxy)pyridin-2-yl)carbamoyl)tetrahydrofuran-3-carboxamide]	–	6.00 to 7.00	< 6.00	< 6.00	6.00 to 7.00	6.00 to 7.00
Cc1nc(NC(=O)NC(=O)C2(C(F)(F)F)CCC2)ccc1Oc1ccnc(-c2cnn(C)c2)c1 [Example 102, N-((6-methyl-5-((2-(1-methyl-1H-pyrazol-4-yl)pyridin-4-yl)oxy)pyridin-2-yl)carbamoyl)-1-(trifluoromethyl)cyclobutanecarboxamide]	–	7.00 to 8.00	6.00 to 7.00	6.00 to 7.00	> 8.00	> 8.00
Cc1ncc(-c2cc(Oc3ccc(NC(=O)NC(=O)C4CCOCC4)nc3)ccn2)s1 [Example 156, N-((5-((2-(2-methylthiazol-5-yl)pyridin-4-yl)oxy)pyridin-2-yl)carbamoyl)tetrahydro-2H-pyran-4-carboxamide]	–	7.00 to 8.00	6.00 to 7.00	< 6.00	6.00 to 7.00	7.00 to 8.00
Cc1cc(-c2cc(Oc3ccc(NC(=O)NC(=O)C4CCOC4)nc3)ccn2)ccn1 (centres unmarked) [Example 85, N-((5-((2′-methyl-[2,4′-bipyridin]-4-yl)oxy)pyridin-2-yl)carbamoyl)tetrahydrofuran-3-carboxamide]	–	7.00 to 8.00	< 6.00	< 6.00	6.00 to 7.00	7.00 to 8.00
